Patent US11745001B2, “Therapeutic bandage” (University of Connecticut, priority 2020, dated 2023)

Text: FIG. 4A illustrates a microneedle base 44 showing the hollow channel 50. FIG. 4B illustrates the microneedle base 44 coupled to the rapid-dissolving tips 40, which include tattoo ink. In one embodiment, the therapeutic bandage 10 may be producing the microneedles 26 and then coupling the microneedles 26 to the bandage matrix 30. In some embodiments, the microneedles 26 may be integrally formed with a portion of the bandage matrix 30. The microneedles are produced by forming the base 44, with the microchannel 50, and loading the base […] with the second immunomodulatory compound. The tip 40 is then produced and loaded with the first immunomodulatory compound. The tip 40 is then coupled to the base 44 to seal the microchannel […]. To test the mechanical strength of the microneedles 26, the tips 40 were loaded with insoluble tattoo ink (FIG. 4B). The microneedles 26 were then applied to cultured human skin explants using a 1 Newton application force. […] FIG. 4E illustrates a longitudinal section of explanted human skin showing spacing of microneedle deposition in the dermal layer. The kinetics of drug release were then measured using epifluorescence microscopy and two fluorescent dyes.

diffusion radius compared with the tip dye: approximately equal diffusion radius
release of red fluorescence from the microneedle base: after about one hour
visibility of dye: barely visible
Structure (SMILES): CCN(CC)c1ccc2c(-c3ccc(S(=O)(=O)O)cc3S(=O)(=O)[O-])c3ccc(=[N+](CC)CC)cc-3oc2c1 [sulforhodamine B]
